Series [1] has as its system N. meninigitidis (LNP24198) expressing luciferase (LuxABCDE). Nature of the series: N. meningitidis luminescent strain growth assay (16 h). The class given is cell-based, Neisseria meningitidis. The note with it: for MIC: 16 h. As for the experimental part: N. meningitidis Luminescent Strain Growth Assay (16 h)
To perform the library screening (FIG. 1) or to compare the activity of the different boron-containing salts (FIG. 3), the amount of light produced after 16 h of growth for N. meningitidis luminescent strain was measured. Contrarily to optical density (OD) readings which can be misleading due to the absorbance of dead cells, this measurement is directly correlated to the number of live cells, as the half-life of the luciferase and its substrate are limited and that the emission of light is therefore not subsisting after the death of the cells. To perform this assay, N. meninigitidis (LNP24198) expressing luciferase (LuxABCDE) was grown overnight under the control of the constitutive promoter porBp in GCB agar media, and a cell-suspension corresponding to an OD600=0.01 was subsequently prepared. In parallel, fresh stock DMSO solutions of the compounds were prepared (100×, with final concentrations being indicated in the different figures) and 1.8 μL of the corresponding solutions were added per well of 96-well plates. In each well, 178.2 μL of bacterial suspension were subsequently added. Bacteria were allowed to grow during 16 h at 37° C. with 5% CO2. The emitted light was measured using a 96-well plate luminometer (PerkinElmer Wallac 1420 Victor^3) and results are expressed in relative light unit (RLU). All these assays were performed at least in triplicates.
To screen molecules for their antibacterial activity, a luminescent system was used, as previously described for other bacteria. A clinical isolate of N. meninigitidis (LNP24198) expressing luciferase (LuxABCDE) under the control of the constitutive promoter porBp was used, as similarly described, located in the intergenic region next to NMB1732. More than 2400 compounds from different origins were screened to identify candidates with the ability to inhibit the growth of N. meningitidis after 16 h at 37° C. […] It is noteworthy that stock solutions for all tested compounds were prepared in DMSO and that the final DMSO concentration of the tested solutions was kept at 1%, a concentration which has proven not to affect the growth of N. meningitidis (FIG. 1A). […] An investigation of the effect of the BPh4^− moiety was then pursued.
To exclude any salt-specific effect, the effect of several BPh4^− and BF4^− salts on the growth of N. meningitidis luminescent strain was tested. The growth of N. meningitidis was measured after a 16 h-exposure to different concentrations of various BPh4^− and BF4^− salts. From this assay, the MIC (minimum inhibitory concentration, the lowest concentration that prevents visible bacterial growth, <800 RLU) was calculated. All BPh4 salts tested (sodium, ammonium and potassium) were all highly toxic for N. meningitidis.
Several borate compounds were prepared and their ability to inhibit N. meningitidis growth was assessed using the luminescent system described at Example 2.

Series [2] can be described thus: Partition coefficient (Log P), shaking flask method (HPLC-UV). The conditions noted are these: octanol/water. The class given is physicochemical. The source says:
As well-known to the skilled person, when expressing lipophilicity as log P, P is the partition coefficient; that is the ratio of the concentrations of the compound between a hydrophobic phase and a hydrophilic phase (forming a biphasic liquid mixture), generally water and octanol.
The measurement of log P is well described in the literature—see e.g. Román, I. P.; Mastromichali, A.; Tyrovola, K.; Canals, A.; Psillakis, E. Rapid Determination of Octanol-Water Partition Coefficient Using Vortex-Assisted Liquid-Liquid Microextraction. J. Chromatogr. A 2014, 1330, 1-5; and Yiantzi, E.; Psillakis, E.; Tyrovola, K.; Kalogerakis, N. Vortex-Assisted Liquid-Liquid Microextraction of Octylphenol, Nonylphenol and Bisphenol-A. Talanta 2010, 80 (5), 2057-2062, both of which are incorporated herein by reference.
Partition coefficients (Log P) were determined using the shaking flask method (HPLC-UV)—see Román, I. P.; Mastromichali, A.; Tyrovola, K.; Canals, A.; Psillakis, E. Rapid Determination of Octanol-Water Partition Coefficient Using Vortex-Assisted Liquid-Liquid Microextraction. J. Chromatogr. A 2014, 1330, 1-5; and Yiantzi, E.; Psillakis, E.; Tyrovola, K.; Kalogerakis, N. Vortex-Assisted Liquid-Liquid Microextraction of Octylphenol, Nonylphenol and Bisphenol-A. Talanta 2010, 80 (5), 2057-2062, both of which are incorporated herein by reference.

For series [3], the system named is N. meningitidis. Description: Bacterial survival assay (3 h), CFU counts. The class given is cell-based, Neisseria meningitidis. The note with it: 50 μM, 3 h, CFU counts vs DMSO 1% control. As for the experimental part:
(§1) Bacterial Survival Assay (3 h)
(§2) To measure bacterial survival (FIGS. 2 and 4), different bacteria were exposed to various concentrations of the compounds (as indicated) in their specific growth media (see the culture conditions above) for 3 h at 37° C. To perform this assay, all strains were grown overnight in their corresponding agar media. Cell-suspension corresponding to an OD600=0.05 were subsequently prepared. In parallel, fresh stock DMSO solutions of the compounds were prepared (100×, with final concentrations being indicated in the different figures) and 1.8 μL of the corresponding solutions were added per well of 96-well plates. In each well, 178.2 μL of bacterial suspension were subsequently added. Bacteria were allowed to grow during […] at 37° C. with 5% CO2. After incubation, serial dilutions (until 10^−6) were performed and 50 μL of each diluted solution were spread on agar plates. After an overnight incubation at 37° C. with/without 5% CO2, CFU were enumerated. All these assays were performed at least in triplicates.
(§3) Therefore, the bactericidal activity was assessed for the 4 compounds harboring a BPh4^− identified from the initial screen described above (AnIII-7, AnIII-6, AnII-18, NaBPh4). N. meningitidis was treated with 50 μM of each compound and the % survival cells (compared with DMSO 1% control) was measured using serial dilutions and CFU counts. […] To verify if the bactericidal effect could be observed for the other pathogen of the Neisseria family, a clinical isolate of. N. gonorrhoeae (LNP16626 [3]) was also treated with 50 μM of the same compounds, respectively, using the same assay.
(§4) The MBC (minimum bactericidal concentration that kill >99.999%), the concentration necessary to completely abrogate bacterial survival after a 3 h exposure to NaBPh4, was next assessed.

The subject of series [4] is N. gonorrhoeae (LNP16626). Nature of the series: Bacterial survival assay (3 h), CFU counts. The conditions noted are these: 50 μM, 3 h, CFU counts. Type of series: cell-based, Neisseria gonorrhoeae. As for the experimental part:
as §1, §2, §3, §4

[5] abbreviates: minimum inhibitory concentration, N. meningitidis growth, luminescent system (<800 RLU).

Values after ≈ are worked out from the molar mass of the structure shown. A value given as a limit tells only on which side of the number the result lay.

In general, MIC refers to the least concentration at which growth counts as inhibited. What is called Log P is a log measure of how a compound divides between an organic and an aqueous phase. Read a high Log P as a more lipophilic compound. With `Cc1ccc([B-](c2ccccc2)(c2ccc(C)cc2)c2ccc(C)cc2)cc1.[Na+]` [Compound 14, Sodium tris(4-methylphenyl)(phenyl)borate], the MIC in series [1] (setting [5]) amounted to 5 µM. Besides, in series [2], the “Log P” value was found to be 2.5±0.2.

What is called logP is a log measure of how a compound divides between an organic and an aqueous phase. Read a high logP as a more lipophilic compound. `CCCCCC[B-](c1ccccc1)(c1ccccc1)c1ccccc1` [Compound 9, Sodium hexyltriphenylborate] came in with an MIC in series [1] (Neisseria meningitidis) of 1 µM. Further, the logP in series [2] was 2.83 ± 0.02.

Take `Cc1ccc([B-](c2ccc(C)cc2)(c2ccc(C)cc2)c2ccc(C)cc2)cc1.[Na+]` [Compound 15, sodium tetrakis(tolyl)borate]: the MIC result in series [1] (setting [5]) is reported as “Active but MIC not determined because of abnormal background signal”.

In series [1] (setting [5]), `F[B-](F)(F)c1ccccc1.[K+]` [Compound 2, Potassium trifluoro(phenyl)borate, reference compound] had an MIC above 250 µM.

The molecule “Sodium bis(4-methylphenyl)diphenylborate [Compound 13]” displayed an MIC in series [1] (setting [5]) of 5 µM. Moreover, the “Log P” value in series [2] is reported as 2.0±0.1.

With `F[B-](F)(F)F` [BF4, reference compound], the “survival of N. meningitidis” value in series [3] is recorded as “does not exhibit anti-bacterial activity”. Also, the “survival of N. gonorrhoeae” value in series [4] was “does not exhibit anti-bacterial activity”. Besides, in series [2], the “Log P” value was “about −1.6”.

“Sodium tetrafluoroborate [Compound 4, reference compound]”: in series [1] (setting [5]), the MIC is above 250 µM.

In series [1] (Neisseria meningitidis), `c1ccc([B-]2(c3ccccc3)[NH2+]CCO2)cc1` [Compound 22] returned an MIC of 75 µM (≈ 16.9 µg/mL).

For the molecule `c1ccc(B(c2ccccc2)c2ccccc2)cc1` [BPh3, triphenylborane, reference compound], the “toxicity / effect on growth of N. meningitidis luminescent strain (FIG. 3)” value in series [1] (16 h-exposure, different concentrations) is “No observable toxicity”.

In the case of `CCC[B-](c1ccccc1)(c1ccccc1)c1ccccc1` [Compound 7, Sodium n-propyltriphenylborate], in series [1] (Neisseria meningitidis), the MIC came out at 5 µM. In series [2], this molecule had a logP of 0.8 ± 0.2.

As to `c1ccc(P(c2ccccc2)c2nc3ccccc3n2Cc2ccc([B-](c3ccccc3)(c3ccccc3)c3ccccc3)cc2)cc1` [Compound 21], the lowest concentration to inhibit growth in series [1] (Neisseria meningitidis) (MIC) was 0.78 µM.

In the case of `Fc1ccc([B-](c2ccc(F)cc2)(c2ccc(F)cc2)c2ccc(F)cc2)cc1` [Compound 16, sodium tetrakis(4-fluorophenyl)borate], the MIC in series [1] (Neisseria meningitidis) worked out at 2.5 µM.

In turn, `Cc1ccc([B-](c2ccccc2)(c2ccccc2)c2ccccc2)cc1.[Na+]` [Compound 12, Sodium tolyltriphenylborate] displayed an MIC in series [1] (setting [5]) of 25 µM. The “Log P” value in series [2] is 0.41±0.02.

As to `Oc1ccc2ccccc2c1/C=N/c1ccc([B-](c2ccccc2)(c2ccccc2)c2ccccc2)cc1` [Compound 19, sodium {4-[(E)-[(2-hydroxynaphthalen-1-yl)methylidene]amino]phenyl}triphenylborate], it took 2.35 µM to inhibit growth in series [1] (Neisseria meningitidis) (MIC).

With `CCCCCCCC[B-](c1ccccc1)(c1ccccc1)c1ccccc1` [Compound 11, Sodium octyltriphenylborate], in series [1] (Neisseria meningitidis), the MIC turned out to be 1 µM. Also, in series [2], the logP is 4.1 ± 0.3.

In series [1] (Neisseria meningitidis), `CCCCCCC[B-](c1ccccc1)(c1ccccc1)c1ccccc1` [Compound 10, Sodium heptyltriphenylborate] showed an MIC of 1 µM. In addition, the logP in series [2] was 3.1 ± 0.05.

`CC[C@H]1OC(=O)[C@H](C)[C@@H](O[C@H]2C[C@@](C)(OC)[C@@H](O)[C@H](C)O2)[C@H](C)[C@@H](O[C@@H]2O[C@H](C)C[C@H](N(C)C)[C@H]2O)[C@](C)(O)C[C@@H](C)C(=O)[C@H](C)[C@@H](O)[C@]1(C)O` [erythromycin, reference compound]: the “emitted light after 16 h of growth” value in series [1] (erythromycin 3.5 μM, largest value of 10 replicates) is listed as below 800 RLU.

In series [1] (Neisseria meningitidis), `CC[B-](c1ccccc1)(c1ccccc1)c1ccccc1` [Compound 6, Sodium ethyltriphenylborate] came in with an MIC of 25 µM. For the same molecule, the logP in series [2] turned out to be 0.

In turn, `C[B-](c1ccccc1)(c1ccccc1)c1ccccc1` [Compound 5, Sodium methyltriphenylborate] returned an MIC in series [1] (Neisseria meningitidis) of 25 µM. For the same molecule, the logP in series [2] is -0.96 ± 0.1.

In series [1] (setting [5]), “Potassium difluorodiphenylborate [Compound 3]” came in with an MIC of 37.5 µM.

The values are drawn from US12421264B2 (INSTITUT NATIONAL DE LA RECHERCHE SCIENTIFIQUE, priority 2018, dated 2025).
